Results: patent US20230159436A1, “APPLICATIONS OF AMIDE ANALOGS OF TRITERPENES IN CURES OF CANCER AND OTHER DISEASES” (Pacific Arrow Limited, priority 2021, published 2023)
≈ marks a conversion by molar mass, not a printed value.

System: ovarian cancer cells
Test: Inhibiting growth of ovarian cancer cells
Format: cell-based

- IC50: ~1.5 µg/mL (≈ 1.33 µM)
SMILES: C/C=C(/C)C(=O)O[C@@H]1[C@H](C)CC2C3=CCC4[C@@]5(C)CC[C@H](O[C@@H]6OC(C(=O)O)[C@@H](O)C(O[C@@H]7O[C@@H](CO)C(O)C7O)C6O[C@@H]6OC(CO)[C@H](O)C(O)C6O)C(C)(C)C5CC[C@@]4(C)[C@]3(C)[C@@H](O)[C@@H](O)[C@@]2(CO)[C@H]1OC(=O)/C(C)=C\C (stereo partly drawn) [Compound Y, 3-O-[β-D-galactopyranosyl (1→2)]-α-L-arabinofuranosy (1→3)-β-D-glucuronopyranosyl-21,22-O-diangeloyl-3β,15α,16α,21β,22α,28-hexahydroxyolean-12-ene]
